For one assay, the system named is HIV. The assay is described as follows: Activity against HIV and other sexually transmitted diseases. Particulars: by comparison with dextrin 2- and 6-sulphates.

For the substance Dextrin 3-sulphate [Example 1], in the assay with HIV, the “activity against HIV and other sexually transmitted diseases (STDs)” value is reported as “relatively poor activity”.

Regarding dextrin sulphate, the spermicidal activity entry in “Spermicidal activity” was “little or no spermicidal activity”.

For the origin of these results see US20060234977A1, “Antiviral compostion comprising a sulphated glucose polymer and a bacteriostatic agent” (priority 2003, published 2006).
